Experimental data from patent US20220315632A1, “COMBINATION OF DIETARY PEPTIDES” (DIET4LIFE APS, priority 2019, published 2022).
Ends that are not written are not given here. Peptide text beside a SMILES is read from it.

How the values were obtained:
murine intestinal cells = murine intestinal cells (Mus musculus, UniProt O88319); assay: Ca2+ flux / calcium response assay (cell signaling activity) in murine intestinal cells; assay type: cell-based; details: FIG. 2, truncation
Excerpt: Murine intestinal enteroendocrine L-cell lines that expresses the proglucagon gene and secretes GLP-1 in vitro were used.

[1] = system: human (hIC) intestinal cells; assay: Ca2+ flux / calcium response assay in human intestinal cells (hIC); assay type: cell-based; details: FIG. 2, truncation
Method: Elevation of intracellular calcium level was measured using the fluorescent calcium chelating dye Fluo-4 AM (ThermoFischer Scientific, Denmark). Briefly, cells were grown as a monolayer in 96-well tissue culture plates (Sarstedt, Germany) to near confluence in appropriate growth medium as described in the cell culture section. Prior to the start of the assay, the cells were incubated with 1.5 μM Fluo-4 AM in complete culture media mixed 1:1 with Hank's balanced salt solution (HBSS, ThermoFischer Scientific, Denmark) containing 25 mM HEPES (pH 7.4), 1% BSA (Sigma-Aldrich, Denmark), 2% ink (Soluro GMBH, Germany), 0.01% Pluronic F-127 (Sigma-Aldrich, Denmark) and 1 mM Probenecide (Sigma-Aldrich) for 60 minutes at 37° C.
All test compounds were dissolved in water, and then diluted in 1×HBSS containing 25 mM HEPES (pH 7.4), 1% BSA and 2% ink. Without any removal of excess Fluo-4 AM, test compounds were added directly into the wells and fluorescence were measured using instrument settings for excitation at 488 nm and emission at 525 nm in a microtiter plate reader (SpectraMax M5, Molecular Devices, USA).
Human intestinal cell lines were cultured in McCoy's modified 5A medium supplemented with 10% fetal bovine serum and 1% penicillin/streptomycin/neomycin at 37° C. and 5% CO2 in a humidified incubator.

Swiss-Webster females = assay: Chronic feed intake, 3-week daily administration; assay type: in vivo; details: FIG. 18; liraglutide 3 μg/mouse s.c., DC7-2 1 mg/mouse i.p., sitagliptin 0.025 mg/mouse
Excerpt: FIG. 18. […] Mice had free access to water and feed in this 3-week study (n=14-18 per group). Significance (P<0.05) is shown as * compared to the corresponding vehicle control.
The effect of DC7-2 alone or in combination with liraglutide on feed intake and body weight was investigated in outbred Swiss-Webster females.

mice [2] = details: mouse, in vivo, ip, 128 mg/kg
Method: Liraglutide reached its maximum inhibition of gastric emptying at doses higher than 3 mg/kg retaining approximately 30% of the phenol red marker solution in the stomach. […] A combination test was designed in which DC7-2 was given at EC50 (3 mg/kg) together with different doses of liraglutide (same as used in dose-response test) (FIG. 17 B). […] This was further supported by the different maximum values observed for liraglutide and DC7-2 alone, respectively.

pepsin = assay: Pepsin degradation (proteolytic digest of meat); details: present in proteolytic digests
Method: Minced meat is diluted 1-10 times with distilled water, adjusted to pH 1-3 with hydrochloric acid, and incubated with 0.01-10% pepsin (w/w) at 4-40° C. for ½-12 h with adequate mixing. Insoluble material is removed by centrifugation at 100-1000 xg for 3-30 min, and supernatant is neutralized with NaOH. Using sterile conditions, low molecular weight peptides in supernatant are recovered by tangential ultrafiltration at 4-40° C. for ½-12 h, and excess water is evaporated at 25-50° C. for up to 12 h. The concentrated dialysate is tested for bioactivity with cells and used for further purification by HPLC.

[3] = Stability of peptides in serum (Fetal Bovine Serum), activity remaining; assay type: in vitro ADME; details: octapeptides X-SDKPYIL; fraction of peptide activity left after 10 min of incubation in serum at 37° C.
Method: All peptides were incubated at 10^−5 M with Fetal Bovine Serum (FBS; final concentration of 66.7%) (Sigma Aldrich, Denmark) at 37° C. for 3 hours. The peptide degradation was terminated using 1 M phosphoric acid (final 0.4 M, pH ˜1.2) and neutralized to pH 7.2-7.4 with NaOH before testing activity in intestinal cells. As for small intestine homogenates, a zero degradation control was included for each peptide.
DC7-2, NT, DKPYIL and NT-(8-13) (final concentration of 10^−6 M) were incubated either with FBS or with 270× diluted intestinal homogenate at 37° C. for various time points with shaking. Degradation was stopped with 1 M phosphoric acid and the samples were subsequently neutralized and immediately tested with intestinal cells as described above. Control for zero degradation was included for each peptide as above.
The 20 hexapeptides with systematic N-terminal substitutions (X-KPYIL) (Schafer-N, Denmark) and NT (8-13) was incubated at 10^−6 M in either FBS for 10 minutes or with 270× diluted intestinal homogenate for 30 minutes at 37° C. with shaking. The degradation was stopped with 1 M phosphoric acid. Peptide solutions were neutralized with NaOH (pH 7.2-7.4), diluted and immediately tested for bioactivity using murine intestinal cells. Determination of EC50 for stimulation of cells allowed calculation of recovered peptide. Systematic substitutions of N-terminal amino acids in octapeptide […] and their importance for activity and stability. Sequence, activity and stability of DC7-2 is italicized.

mice [4] = details: 1 week of daily exposure in mice; cited from earlier work

Chain of murine intestinal cells (O88319 whole entry, the tested form may be a part): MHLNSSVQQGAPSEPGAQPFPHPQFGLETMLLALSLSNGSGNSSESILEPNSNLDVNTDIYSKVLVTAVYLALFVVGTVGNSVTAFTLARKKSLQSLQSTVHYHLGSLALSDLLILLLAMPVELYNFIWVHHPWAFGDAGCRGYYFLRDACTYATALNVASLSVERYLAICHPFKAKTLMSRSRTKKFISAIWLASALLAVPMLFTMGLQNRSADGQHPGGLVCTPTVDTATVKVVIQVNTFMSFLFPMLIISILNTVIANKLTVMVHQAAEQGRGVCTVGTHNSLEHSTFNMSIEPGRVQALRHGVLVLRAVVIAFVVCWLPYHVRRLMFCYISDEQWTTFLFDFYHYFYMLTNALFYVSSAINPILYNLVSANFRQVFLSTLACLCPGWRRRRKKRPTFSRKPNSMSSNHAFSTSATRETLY

Compound | Stability in serum (activity remaining) [3] | further results
CC[C@H](C)[C@H](NC(=O)[C@H](Cc1ccc(O)cc1)NC(=O)[C@@H]1CCCN1)C(=O)N[C@@H](CC(C)C)C(=O)O [PYIL] (H-PYIL-OH) |  | activity compared with the full sequence ASDKPYIL in mIC (murine intestinal cells): two orders of magnitude lower activity; activity in hIC [1]: no activity
N[C@@H](CC(=O)N1CCn2c(nnc2C(F)(F)F)C1)Cc1cc(F)c(F)cc1F [sitagliptin] |  | accumulative feed intake after repeated daily administration (Swiss-Webster females): reduces feed intake
ASDKPYIL [Peptide ID 36036, A SDKPYIL] |  | inhibition of gastric emptying (mice [2]): ~50%; pepsin degradation (pepsin): resistant to pepsin degradation
ASDKPYIL [compound 36036] | 0.0988 fraction | 
CSDKPYIL [compound 36037] | 0.0963 fraction | 
DSDKPYIL [compound 36038] | 0.0947 fraction | 
ESDKPYIL [compound 36039] | 0.0964 fraction | 
FSDKPYIL [compound 36040] | 0.0944 fraction | 
GSDKPYIL [compound 36041] | 0.0912 fraction | 
HSDKPYIL [compound 36042] | 0.0980 fraction | 
ISDKPYIL [compound 36043] | 0.0956 fraction | 
KSDKPYIL [compound 36044] | 0.0527 fraction | 
LSDKPYIL [compound 36045] | 0.0917 fraction | 
MSDKPYIL [compound 36046] | 0.0762 fraction | 
NSDKPYIL [compound 36047] | 0.0872 fraction | 
PSDKPYIL [compound 36048] | 0.0772 fraction | 
QSDKPYIL [compound 36049] | 0.0742 fraction | 
RSDKPYIL [compound 36050] | 0.0735 fraction | 
SSDKPYIL [compound 36051] | 0.0609 fraction | 
TSDKPYIL [compound 36052] | 0.0535 fraction | 
VSDKPYIL [compound 36053] | 0.0488 fraction | 
WSDKPYIL [compound 36054] | 0.0426 fraction | 
YSDKPYIL [compound 36055] | 0.0491 fraction | 
exendin-4 |  | desensitization of glucose homeostasis (mice [4]): a tendency but not significant difference
